{
  "source": "patent US7001921B1",
  "about": "“Cell adhesion inhibitors” (Biogen Idec MA Inc., priority 1995, dated 2006)",
  "data": [
    {"target": "T1, VLA4 (Homo sapiens, UniProt P05556+P13612)", "T1 construct": "endogenous in cells; host or cells: Ramos cells", "T1 sequence (P13612 34-1032)": "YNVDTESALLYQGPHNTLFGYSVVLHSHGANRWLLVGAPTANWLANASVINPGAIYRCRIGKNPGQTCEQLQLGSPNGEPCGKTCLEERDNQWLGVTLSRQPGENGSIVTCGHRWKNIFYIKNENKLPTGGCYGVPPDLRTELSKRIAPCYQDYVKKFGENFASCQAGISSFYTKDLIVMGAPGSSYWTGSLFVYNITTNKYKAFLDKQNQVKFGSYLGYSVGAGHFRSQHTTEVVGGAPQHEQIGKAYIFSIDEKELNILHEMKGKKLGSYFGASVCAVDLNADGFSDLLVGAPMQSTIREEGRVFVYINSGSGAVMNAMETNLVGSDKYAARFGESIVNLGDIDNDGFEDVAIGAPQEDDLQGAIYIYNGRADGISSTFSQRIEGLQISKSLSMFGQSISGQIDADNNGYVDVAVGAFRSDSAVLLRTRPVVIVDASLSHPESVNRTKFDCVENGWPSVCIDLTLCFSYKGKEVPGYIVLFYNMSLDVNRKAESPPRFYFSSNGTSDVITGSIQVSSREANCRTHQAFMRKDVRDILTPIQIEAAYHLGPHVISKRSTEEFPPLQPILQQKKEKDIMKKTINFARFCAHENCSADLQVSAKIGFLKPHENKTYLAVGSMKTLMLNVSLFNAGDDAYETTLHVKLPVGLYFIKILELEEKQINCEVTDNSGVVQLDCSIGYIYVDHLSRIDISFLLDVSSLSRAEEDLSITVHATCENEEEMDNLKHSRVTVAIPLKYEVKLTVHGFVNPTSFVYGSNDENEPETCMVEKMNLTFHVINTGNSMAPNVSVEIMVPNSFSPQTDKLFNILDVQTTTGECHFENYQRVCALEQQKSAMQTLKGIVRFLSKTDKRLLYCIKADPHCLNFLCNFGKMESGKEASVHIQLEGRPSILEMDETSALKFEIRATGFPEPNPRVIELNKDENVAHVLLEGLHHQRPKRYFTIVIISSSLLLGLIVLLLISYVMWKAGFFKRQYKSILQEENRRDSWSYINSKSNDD", "T1 sequence (P05556 21-798)": "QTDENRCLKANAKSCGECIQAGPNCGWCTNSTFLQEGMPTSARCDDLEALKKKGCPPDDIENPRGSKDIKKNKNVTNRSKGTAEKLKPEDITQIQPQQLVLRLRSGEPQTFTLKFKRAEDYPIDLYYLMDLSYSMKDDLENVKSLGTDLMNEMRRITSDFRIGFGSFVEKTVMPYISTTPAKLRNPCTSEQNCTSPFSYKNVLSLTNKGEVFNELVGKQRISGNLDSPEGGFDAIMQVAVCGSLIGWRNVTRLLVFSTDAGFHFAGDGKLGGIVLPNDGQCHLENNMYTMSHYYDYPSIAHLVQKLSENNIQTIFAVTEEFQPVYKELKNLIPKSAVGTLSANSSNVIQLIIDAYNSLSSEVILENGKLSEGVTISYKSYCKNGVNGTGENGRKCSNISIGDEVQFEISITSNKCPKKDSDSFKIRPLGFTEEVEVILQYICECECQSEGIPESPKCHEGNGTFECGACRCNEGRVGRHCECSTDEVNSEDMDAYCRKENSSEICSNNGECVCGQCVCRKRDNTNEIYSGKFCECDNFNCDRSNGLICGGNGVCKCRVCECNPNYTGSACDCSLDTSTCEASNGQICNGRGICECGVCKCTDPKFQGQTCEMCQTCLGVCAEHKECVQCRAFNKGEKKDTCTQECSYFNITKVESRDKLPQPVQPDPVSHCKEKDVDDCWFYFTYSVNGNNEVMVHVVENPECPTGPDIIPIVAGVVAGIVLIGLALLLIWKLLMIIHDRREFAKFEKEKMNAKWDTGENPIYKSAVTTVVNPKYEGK", "assay": "Inhibition of VLA4-dependent adhesion to BSA-CS1 (labelled Ramos cells)", "type": "cell-based", "conditions": "binding of BCECF-AM labelled Ramos cells to CS1 peptide-coated wells, 2 mM MnCl2, 30 minutes at room temperature; IC50 range", "description": "For example, the cell adhesion inhibitory activity of these compounds may be measured by determining the concentration of inhibitor required to block the binding of VLA-4-expressing cells to fibronectin- or CS1-coated plates. In this assay microtiter wells are coated with either fibronectin (containing the CS-1 sequence) or CS-1. If CS-1 is used, it must be conjugated to a carrier protein, such as bovine serum albumin, in order to bind to the wells. Once the wells are coated, varying concentrations of the test compound are then added together with appropriately labelled, VLA-4-expressing cells. Alternatively, the test compound may be added first and allowed to incubate with the coated wells prior to the addition of the cells. The cells are allowed to incubate in the wells for at least 30 minutes. Following incubation, the wells are emptied and washed. Inhibition of binding is measured by quantitating the fluorescence or radioactivity bound to the plate for each of the various concentrations of test compound, as well as for controls containing no test compound.\nVLA-4-expressing cells that may be utilized in this assay include Ramos cells, Jurkat cells, A375 melanoma cells, as well as human peripheral blood lymophocytes (PBLs). The cells used in this assay may be fluorescently or radioactively labelled.\nThis assay was used to assess the potency of VLA4-directed inhibitory compounds of this invention.\nWe dissolved BSA-SMCC (Pierce Chemical, Rockford, Ill.; Catalog # 77115) in H2O at a concentration of 10 mg/mL. [SEQ ID NO:4]: […](“Cys-Tyr-CS1 peptide”), which we synthesized by conventional solid phase chemistry and purified by HPLC, was dissolved in 10 mM HEPES pH 5, 50 mM NaCl and 0.1 mM EDTA also at a concentration of 10 mg/mL. We then mixed 500 μL of BSA-SMCC, 250 μL of Cys-Tyr-CS1 peptide and 75 μL of […] and allowed the conjugation reaction to proceed for 30 minutes. We stopped the reaction by adding 1 μL of beta-mercaptoethanol. Samples were analyzed for cross-linking by SDS-PAGE. This reaction produced multiple molecules of the Cys-Tyr-CS1 peptide conjugate to each BSA molecule.\nWe coated the wells of a Linbro titertek polystyrene 96-well flat bottom plate (Flow Laboratories, Maclean, Va.; catalog #76-231-05) with 100 μL of the above-described BSA-CS1 solution diluted to 1 μg/mL in 0.05 M NaHCO3 (15 mM NaHCO3, 35 mM Na2CO3) pH 9.2. Some wells were not coated with CS1 in order to assess non-specific cell binding (NSB). The plate was then incubated overnight at 4° C.\nFollowing this incubation, the contents of the wells were removed by inverting and blotting the plate. All of the wells were then blocked with 100 μL of 1% BSA in PBS, 0.02% NaN3, for a minimum of one hour at room temperature.\n3. Preparation of Fluorescently Labelled Ramos Cells Ramos cells are grown, maintained and labelled in RPMI 1640 culture medium containing 1% BSA. Just prior to running the assay, we added 2′,7′-bis-(2-carboxyethyl)5 (and -6) carboxyfluorescein acetoxymethyl ester (“BCECF-AM”; Molecular Probes Inc., Eugene, Oreg.; catalog #B-1150) to a final concentration of 2 μM to a culture of Ramos cells (4×10^6 cells/mL). We incubated the cells for 20 minutes at 37° C.\nFollowing labelling, the cells were washed twice in assay buffer (24 mM TRIS, 137 mM NaCl, 2.7 mM KCl, pH 7.4, containing 0.1% BSA and 2 mM glucose) to remove any cations originating from the culture medium. The cells were then resuspended in assay buffer to 4×10^6 cells/mL and 2 mM MnCl2 was added to upregulate VLA4 on the surface of the cells.\nImmediately prior to running the assay, we removed the BSA blocking solution from the 96-well plates and washed the wells with 100 μL of assay buffer. We then added to each well 25 μL of test cell adhesion inhibitory compound at 2× the final concentration and 25 μL of the labelled Ramos cells. Final concentrations were selected across a range of anticipated IC50s, usually between 0.01 nM–10 μM. […]", "units": {"IC50": "µM"}, "values": [
      {"compound": "COc1cc(CC(=O)NC(CC(C)C)C(=O)NC(CC(=O)O)c2ccccc2)c(Br)cc1O", "note": "(centres unmarked) [compound 1100]", "IC50": "0.05 to 10"},
      {"compound": "CC(C)CC(NC(=O)C1CCc2ccccc21)C(=O)NC(CC(=O)O)c1ccccc1", "note": "(centres unmarked) [compound 1189]", "IC50": "> 10"},
      {"compound": "CC(C)CC(NC(=O)Cc1ccccc1O)C(=O)NC(CC(=O)O)c1ccccc1", "note": "(centres unmarked) [compound 1096]", "IC50": "> 10"},
      {"compound": "COc1ccc(C(CC(=O)O)NC(=O)C(CC(C)C)NC(=O)Cc2ccc(NC(=O)Nc3ccccc3C(C)C)cc2)cc1", "note": "(centres unmarked) [compound 1207]", "IC50": "> 10"},
      {"compound": "CC(C)CC(NC(=O)Cc1ccc(O)cc1)C(=O)NC(CC(=O)O)c1ccccc1", "note": "(centres unmarked) [compound 1144]", "IC50": "0.05 to 10"},
      {"compound": "O=C(O)CC(NC(=O)C(CCCCNC(=O)OCc1ccccc1)NC(=O)Cc1ccc(NC(=O)Nc2ccccc2)cc1)c1ccccc1", "note": "(centres unmarked) [compound 1132]", "IC50": "0.05 to 10"},
      {"compound": "O=C(O)CC(NC(=O)C(Cc1ccccc1)NC(=O)Cc1ccccc1)c1ccccc1", "note": "(centres unmarked) [compound 1046]", "IC50": "> 10"},
      {"compound": "Cc1ccccc1NC(=O)Nc1ccc(CC(=O)NC(CC(C)C)C(=O)NC(CC(=O)O)c2ccc3c(c2)OCCO3)cc1", "note": "(centres unmarked) [compound 1210]", "IC50": "< 0.05"},
      {"compound": "COc1ccccc1C(CC(=O)O)NC(=O)C(CC(C)C)NC(=O)Cc1ccc(NC(=O)Nc2ccccc2)cc1", "note": "(centres unmarked) [compound 1069]", "IC50": "< 0.05"},
      {"compound": "CC(C)CC(NC(=O)Cc1ccc(O)cc1)C(=O)NC(CC(=O)O)c1ccc2c(c1)OCO2", "note": "(centres unmarked) [compound 1006]", "IC50": "0.05 to 10"},
      {"compound": "CC(C)CC(NC(=O)OCc1ccccc1)C(=O)NC(CC(=O)O)c1cccnc1", "note": "(centres unmarked) [compound 1153]", "IC50": "> 10"},
      {"compound": "COc1ccccc1NC(=O)Nc1ccc(CC(=O)NC(CC(C)C)C(=O)NC(CC(=O)O)c2ccc3c(c2)OCO3)cc1", "note": "(centres unmarked) [compound 1079]", "IC50": "< 0.05"},
      {"compound": "CC(C)CC(NC(=O)Cc1ccc(NC(=O)c2ccccc2)cc1)C(=O)NC(CC(=O)O)c1ccccc1", "note": "(centres unmarked) [compound 1105]", "IC50": "0.05 to 10"},
      {"compound": "CC(C)CC(NC(=O)Cc1ccc(O)cc1)C(=O)NC(CC(=O)O)c1ccccc1", "note": "(centres unmarked) [compound 1091]", "IC50": "0.05 to 10"},
      {"compound": "COc1cccc(C(CC(=O)O)NC(=O)C(CC(C)C)NC(=O)Cc2ccc(O)cc2)c1", "note": "(centres unmarked) [compound 1146]", "IC50": "0.05 to 10"},
      {"compound": "O=C(O)CC(NC(=O)C(Cc1nccs1)NC(=O)Cc1ccc(NC(=O)Nc2ccccc2)cc1)c1ccccc1", "note": "(centres unmarked) [compound 1037]", "IC50": "0.05 to 10"},
      {"compound": "CC(C)CC(NC(=O)c1ccc2ccccc2n1)C(=O)NC(CC(=O)O)c1ccccc1", "note": "(centres unmarked) [compound 1149]", "IC50": "> 10"},
      {"compound": "CCCC(NC(=O)Cc1ccccc1)C(=O)NC(CC(=O)O)c1ccccc1", "note": "(centres unmarked) [compound 1038]", "IC50": "> 10"},
      {"compound": "CSCCC(NC(=O)Cc1ccc(NC(=O)Nc2ccccc2)cc1)C(=O)NC(CC(=O)O)c1ccc2c(c1)OCO2", "note": "(centres unmarked) [compound 1163]", "IC50": "0.05 to 10"},
      {"compound": "CC(C)CC(NC(=O)Nc1ccc(NC(=O)Nc2ccccc2)cc1)C(=O)NC(CC(=O)O)c1ccccc1", "note": "(centres unmarked) [compound 1110]", "IC50": "0.05 to 10"},
      {"compound": "CC(C)CC(NC(=O)Cc1ccccc1)C(=O)NC(CC(=O)O)c1ccc(Cl)cc1", "note": "(centres unmarked) [compound 1115]", "IC50": "0.05 to 10"},
      {"compound": "O=C(O)CC(NC(=O)C(CCN1CCOCC1)NC(=O)Cc1ccc(NC(=O)Nc2ccccc2)cc1)c1ccc2c(c1)OCO2", "note": "(centres unmarked) [compound 1191]", "IC50": "0.05 to 10"},
      {"compound": "CC(C)CC(NC(=O)Cc1ccc(O)cc1)C(=O)NC(CC(=O)O)c1cccnc1", "note": "(centres unmarked) [compound 1148]", "IC50": "> 10"},
      {"compound": "CC(C)CC(NC(=O)Nc1ccccc1)C(=O)NC(CC(=O)O)c1ccccc1", "note": "(centres unmarked) [compound 1086]", "IC50": "0.05 to 10"},
      {"compound": "CC(C)CC(NC(=O)Cc1ccc(NS(=O)(=O)c2ccccc2)cc1)C(=O)NC(CC(=O)O)c1ccc2c(c1)OCO2", "note": "(centres unmarked) [compound 1074]", "IC50": "0.05 to 10"},
      {"compound": "CC(C)CC(C(=O)NC(CC(=O)O)c1ccccc1)N(C)C(=O)CCc1ccc(O)cc1", "note": "(centres unmarked) [compound 1087]", "IC50": "> 10"},
      {"compound": "CC(C)CC(NC(=O)Nc1ccc(N)cc1)C(=O)NC(CC(=O)O)c1ccccc1", "note": "(centres unmarked) [compound 1109]", "IC50": "> 10"},
      {"compound": "CC(C)CC(NC(=O)Cc1ccc(Cl)cc1)C(=O)NC(CC(=O)O)c1ccccc1", "note": "(centres unmarked) [compound 1010]", "IC50": "0.05 to 10"},
      {"compound": "O=C(O)CC(NC(=O)C(CSCc1ccccc1)NC(=O)Cc1ccccc1)c1ccccc1", "note": "(centres unmarked) [compound 1127]", "IC50": "0.05 to 10"}
    ]}
  ]
}
